These results are taken from ChEMBL document CHEMBL1144812, “Small molecules with structural similarities to siderophores as novel antimicrobials against Mycobacterium tuberculosis and Yersinia pestis” (Bioorg Med Chem Lett, 2008).

In data set [1] the test system is Yersinia pestis. Description: Antimicrobial activity against Yersinia pestis KIM6-2082.1+ in presence of iron rich PMH-D medium. Type of data set: functional, organism-based.
In data set [2] the test system is Yersinia pestis. Description: Antimicrobial activity against Yersinia pestis KIM6-2082.1+ in presence of iron limiting PMH-D medium. The format is functional, organism-based.
Data set [3] has as its system Mycobacterium tuberculosis. The data set can be described thus: Antimycobacterial activity against Mycobacterium tuberculosis H37Rv in presence of iron rich GAST-D medium. The format is functional, organism-based.
Data set [4] has as its system Yersinia pestis. The data set can be described thus: Ratio of MIC90 for Yersinia pestis KIM6-2082.1+ in iron rich PMH-D medium to MIC90 for Yersinia pestis KIM6-2082.1+ in presence of iron limiting PMH-D medium. Type of data set: functional.
A short description of data set [5]: Cytotoxicity against human HeLa cells after 24 hrs. The format is cell-based. The note with it: read-out: CD50.
Data set [6] addresses T1, AMP-binding enzyme family protein (Yersinia pestis, UniProt Q56950).
T1 sequence (Q56950 whole entry): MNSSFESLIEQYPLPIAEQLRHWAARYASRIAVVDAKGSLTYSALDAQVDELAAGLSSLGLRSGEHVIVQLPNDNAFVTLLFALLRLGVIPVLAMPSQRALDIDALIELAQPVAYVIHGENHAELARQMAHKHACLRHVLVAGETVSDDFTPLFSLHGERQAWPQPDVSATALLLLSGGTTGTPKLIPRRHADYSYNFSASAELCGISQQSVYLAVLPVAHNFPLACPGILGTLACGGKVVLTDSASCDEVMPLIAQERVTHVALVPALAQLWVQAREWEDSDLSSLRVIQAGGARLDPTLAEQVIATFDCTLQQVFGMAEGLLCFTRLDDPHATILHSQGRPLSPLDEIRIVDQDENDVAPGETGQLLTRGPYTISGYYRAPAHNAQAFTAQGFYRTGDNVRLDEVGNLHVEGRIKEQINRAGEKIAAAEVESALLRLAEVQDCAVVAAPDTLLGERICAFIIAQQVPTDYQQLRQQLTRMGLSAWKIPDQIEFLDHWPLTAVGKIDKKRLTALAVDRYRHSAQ
Description: Inhibition of Yersinia pestis YbtE assessed as incorporation of [3H]salicyl group to HMWP2 protein.

Data set [7] has as its system Mycobacterium tuberculosis. The data set can be described thus: Antimycobacterial activity against Mycobacterium tuberculosis H37Rv in presence of iron deficient GAST-D medium. Type of data set: functional, organism-based.

As for `COc1cc([C@@H]2CC(c3ccccc3O)=NN2C(=S)Nc2ccccc2)ccc1O`, the IC50 (in general, the midpoint of a concentration-inhibition curve) in data set [1] was more than 150 µM; in data set [2], 2 µM; in data set [3] it was not below 500 µM; in data set [6], 0.2 µM; in data set [7] it was not below 500 µM. For the same compound, the MIC90 (commonly an inhibitory concentration at the 90% level, which refers to growth in some studies and to a panel of isolates in others) was more than 150 µM in data set [1], 5 µM in data set [2], not below 500 µM in data set [3] and not below 500 µM in data set [7]. In data set [4], the Ratio was more than 30. The CC50 at 24 h in data set [5] worked out at 13 µM.
Turning to `Cc1ccc(NC(=S)N2N=C(c3ccccc3O)C[C@H]2c2ccc(O)cc2)cc1`, the IC50 in data set [1] is more than 9 µM; in data set [2], 0.9 µM; in data set [3], not below 500 µM; in data set [6] it was 0.4 µM; in data set [7], not below 500 µM. The MIC90 in data set [1] is more than 9 µM; in data set [2], 3 µM; in data set [3], not below 500 µM; in data set [7], not below 500 µM. Further, in data set [4], the Ratio is more than 3. The CC50 at 24 h in data set [5] was found to be 3 µM.
As to `Oc1ccccc1C1=NN(C(=S)Nc2ccccc2)[C@H](c2ccc(Cl)cc2)C1`, the IC50 was more than 5 µM in data set [1]; 0.5 µM in data set [2]; not below 500 µM in data set [3]; 0.7 µM in data set [6]; not below 500 µM in data set [7]. Moreover, the MIC90 in data set [1] was more than 5 µM; in data set [2], 1 µM; in data set [3], not below 500 µM; in data set [7] it was not below 500 µM. The Ratio in data set [4] is listed as more than 5. In addition, the CC50 at 24 h in data set [5] came out at 5 µM.
On to `COc1ccc(NC(=S)N2N=C(c3ccc(O)cc3O)C[C@H]2c2ccc(O)c(OC)c2)cc1`, for which the IC50 in data set [1] is more than 9 µM; in data set [2] it was 0.2 µM; in data set [3] it was 167 µM; in data set [6], 1 µM; in data set [7], 125 µM. In addition, the MIC90 in data set [1] was more than 9 µM; in data set [2] it was 1 µM; in data set [3], more than 250 µM; in data set [7], more than 250 µM. Moreover, the Ratio in data set [4] is more than 9. Further, the CC50 at 24 h in data set [5] was 31 µM.
As to `Oc1ccccc1C1=NN(C(=S)Nc2ccccc2)[C@H](c2ccccc2)C1`, the half-maximal inhibitory concentration (IC50) was more than 9 µM in data set [1]; more than 9 µM in data set [2]; not below 500 µM in data set [3]; 0.5 µM in data set [6]; not below 500 µM in data set [7]. Also, the MIC90 was more than 9 µM in data set [1], more than 9 µM in data set [2], not below 500 µM in data set [3] and not below 500 µM in data set [7]. The CC50 at 24 h in data set [5] was 3 µM.
On to `Oc1ccc([C@@H]2CC(c3ccc(O)cc3O)=NN2C(=S)Nc2ccccc2)cc1`, for which the IC50 in data set [1] is more than 150 µM; in data set [2], 1 µM; in data set [3] it was more than 250 µM; in data set [6], 1 µM; in data set [7] it was 167 µM. For the same compound, the MIC90 in data set [1] was more than 150 µM; in data set [2] it was 2 µM; in data set [3], more than 250 µM; in data set [7] it was more than 250 µM. The Ratio in data set [4] is recorded as more than 75. Further, the CC50 at 24 h in data set [5] stood at 63 µM.
On to `Oc1ccccc1C1=NN(C(=S)Nc2ccccc2)[C@H](c2cccs2)C1`, for which, in data set [6], the IC50 was found to be 2 µM.
With `COc1ccc([C@@H]2CC(c3ccccc3O)=NN2C(=S)Nc2ccccc2)cc1`, the IC50 in data set [1] is more than 19 µM; in data set [2] it was 0.7 µM; in data set [3], not below 500 µM; in data set [6], 1 µM; in data set [7], not below 500 µM. Further, the MIC90 in data set [1] was more than 19 µM; in data set [2], more than 19 µM; in data set [3], not below 500 µM; in data set [7] it was not below 500 µM. Moreover, the CC50 at 24 h in data set [5] turned out to be 5 µM.
With `Nc1ncnc2c1ncn2[C@@H]1O[C@H](COS(=O)(=O)NC(=O)c2ccccc2O)[C@@H](O)[C@H]1O`, the IC50 in data set [6] worked out at 0.007 µM.
As to `COc1ccc(NC(=S)N2N=C(c3ccccc3O)C[C@H]2c2ccc(O)c(OC)c2)cc1`, the IC50 in data set [1] was more than 150 µM; in data set [2] it was 0.6 µM; in data set [3], not below 500 µM; in data set [6], 0.5 µM; in data set [7], not below 500 µM. In addition, the MIC90 in data set [1] is more than 150 µM; in data set [2] it was 2 µM; in data set [3] it was not below 500 µM; in data set [7], not below 500 µM. Further, the Ratio in data set [4] was more than 75. The CC50 at 24 h in data set [5] is 25 µM.
Turning to `COc1ccccc1NC(=S)N1N=C(c2ccccc2O)C[C@H]1c1ccccc1O`, the IC50 in data set [1] is more than 5 µM; in data set [2] it was 2 µM; in data set [3], not below 500 µM; in data set [6] it was 0.8 µM; in data set [7] it was not below 500 µM. The MIC90 in data set [1] was more than 5 µM; in data set [2], 5 µM; in data set [3], not below 500 µM; in data set [7] it was not below 500 µM. Also, in data set [4], the Ratio is given as more than 1. For the same compound, the CC50 at 24 h in data set [5] came to 15 µM.
For `Oc1ccc([C@@H]2CC(c3ccccc3)=NN2C(=S)Nc2ccccc2)cc1`, the half-maximal inhibitory concentration (IC50) in data set [1] is more than 38 µM; in data set [2] it was more than 38 µM; in data set [3], not below 500 µM; in data set [6] it was more than 12.5 µM; in data set [7], not below 500 µM. Further, the MIC90 in data set [1] is more than 38 µM; in data set [2], more than 38 µM; in data set [3], not below 500 µM; in data set [7] it was not below 500 µM. For the same compound, in data set [5], the CC50 at 24 h worked out at 29 µM.
As for `COc1cc([C@@H]2CC(c3ccccc3O)=NN2C(=S)Nc2ccccc2OC)ccc1O`, the IC50 was more than 9 µM in data set [1]; 1 µM in data set [2]; not below 500 µM in data set [3]; 0.8 µM in data set [6]; not below 500 µM in data set [7]. Further, the MIC90 in data set [1] is more than 9 µM; in data set [2] it was 6 µM; in data set [3], not below 500 µM; in data set [7] it was not below 500 µM. For the same compound, the Ratio in data set [4] is recorded as more than 2. In addition, in data set [5], the CC50 at 24 h came out at 11 µM.
With `Oc1ccccc1C1=NN(C(=S)Nc2ccccc2)[C@H](c2ccccc2Cl)C1`, the IC50 in data set [1] is more than 5 µM; in data set [2], more than 5 µM; in data set [3] it was not below 500 µM; in data set [6], 2 µM; in data set [7], not below 500 µM. In addition, the MIC90 in data set [1] was more than 5 µM; in data set [2], more than 5 µM; in data set [3], not below 500 µM; in data set [7], not below 500 µM. Also, the CC50 at 24 h in data set [5] stood at 5 µM.
As to `COc1ccccc1[C@@H]1CC(c2ccccc2O)=NN1C(=S)Nc1ccccc1`, the IC50 is more than 5 µM in data set [1]; 0.4 µM in data set [2]; more than 250 µM in data set [3]; 3 µM in data set [6]; more than 250 µM in data set [7]. In addition, the MIC90 in data set [1] is more than 5 µM; in data set [2], more than 5 µM; in data set [3] it was more than 250 µM; in data set [7], more than 250 µM. The CC50 at 24 h in data set [5] is 6 µM.
As for `COc1cc([C@@H]2CC(c3ccccc3O)=NN2C(=S)Nc2ccc(C)cc2)ccc1O`, the IC50 was more than 19 µM in data set [1]; 1 µM in data set [2]; not below 500 µM in data set [3]; 0.5 µM in data set [6]; not below 500 µM in data set [7]. Moreover, the MIC90 in data set [1] was more than 19 µM; in data set [2], 2 µM; in data set [3], not below 500 µM; in data set [7] it was not below 500 µM. The Ratio in data set [4] is more than 10. In addition, the CC50 at 24 h in data set [5] is 16 µM.
Take `COc1ccc(NC(=S)N2N=C(c3ccccc3O)C[C@H]2c2ccc(O)cc2)cc1`: the IC50 is more than 19 µM in data set [1]; 0.7 µM in data set [2]; not below 500 µM in data set [3]; 7 µM in data set [6]; not below 500 µM in data set [7]. The MIC90 in data set [1] is more than 19 µM; in data set [2], 2 µM; in data set [3], not below 500 µM; in data set [7], not below 500 µM. Also, in data set [4], the Ratio was more than 10. Further, the CC50 at 24 h in data set [5] is 4 µM.
For the compound `COc1ccccc1NC(=S)N1N=C(c2ccccc2O)C[C@H]1c1ccc(O)cc1`, the 50% inhibitory concentration (IC50) in data set [1] was more than 19 µM; in data set [2], 2 µM; in data set [3] it was not below 500 µM; in data set [6] it was 0.3 µM; in data set [7], not below 500 µM. Also, the MIC90 in data set [1] was more than 19 µM; in data set [2], 6 µM; in data set [3] it was not below 500 µM; in data set [7], not below 500 µM. In addition, the Ratio in data set [4] is more than 3. Further, in data set [5], the CC50 at 24 h came to 1 µM.
`CN[C@@H]1[C@H](O[C@H]2[C@H](O[C@H]3[C@H](O)[C@@H](O)[C@H](N=C(N)N)[C@@H](O)[C@@H]3N=C(N)N)O[C@@H](C)[C@]2(O)C=O)O[C@@H](CO)[C@H](O)[C@H]1O` (stereo in doubt) [STREPTOMYCIN]: the MIC90 in data set [1] and in data set [2] was 0.2 µM in each case. The Ratio in data set [4] turned out to be 1. Further, the CC50 at 24 h in data set [5] is more than 500 µM.
As to `C[C@@H]1C[C@@H]([C@H](O)CC2CC(=O)NC(=O)C2)C(=O)[C@@H](C)C1` [CYCLOHEXIMIDE], in data set [5], the CC50 at 24 h worked out at 0.1 µM.
